Patent US12209102B2, “Heterocyclic compounds and uses thereof” (Kumquat Biosciences Inc., priority 2022, dated 2025)
pIC50: −log10 of the molar value.

Experiments:
GP2D cells = assay: Ras cellular assay, growth of cells with K-Ras G12D mutation (CellTiter-Glo); assay type: cell-based; conditions: cell growth, Example 9, G12D mutation, read-out: IC50 against GP2D cells
A549 cells = assay: Ras cellular assay, growth of cells with K-Ras G12S mutation (CellTiter-Glo); assay type: cell-based; conditions: Homo sapiens, cell growth, Example 9, G12S mutation, read-out: IC50 against A549 cells
Method in brief: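 A549 cells (K-Ras G12S) in RPMI-1640 with 10% heat-inactivated FBS, seeded e.g. 800 per well in standard or ultra-low-attachment 384-well plates, treated next day with a dilution series (e.g. 10-point, 3-fold). Viability by CellTiter-Glo luminescence about 6 days later; IC50 from four-parameter fit.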

K-Ras WT = biological target: T1, K-Ras WT (Homo sapiens, UniProt P01116); assay: HTRF resonance energy transfer assay, K-Ras WT / SOS1 interaction; assay type: biochemical; conditions: HTRF assay of Example 5; read-out: IC50 against K-Ras WT
T1 construct: made in house; host or cells: E. coli BL21 (DE3)
Method in brief: (§1)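 GST-tagged K-Ras (WT or mutant) bound to anti-GST-Eu donor was mixed with His-hSOS1 bound to anti-6His-XL665 acceptor in ~5 mM HEPES pH 7.4, 150 mM NaCl, 1 mM DTT, 0.05% BSA, 0.0025% Igepal. HTRF (ex 337, em 620/665 nm) was read after ~10 min or longer. IC50 came from the 665/620 ratio over duplicates from 10 μM to 0.01 μM.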

K-Ras G12S = biological target: T2, K-Ras G12S (Homo sapiens, UniProt P01116, G12S); assay: HTRF resonance energy transfer assay, K-Ras G12S / SOS1 interaction; assay type: biochemical; conditions: HTRF assay of Example 5; read-out: IC50 against K-Ras G12S
T2 construct: made in house; host or cells: E. coli BL21 (DE3)
Method in brief: as §1

K-Ras G12V = biological target: T3, K-Ras G12V (Homo sapiens, UniProt P01116, G12V); assay: HTRF resonance energy transfer assay, K-Ras G12V / SOS1 interaction; assay type: biochemical; conditions: HTRF assay of Example 5; read-out: IC50 against K-Ras G12V
T3 construct: made in house; host or cells: E. coli BL21 (DE3)
Method in brief: as §1

K-Ras G12D = biological target: T4, K-Ras G12D (Homo sapiens, UniProt P01116, G12D); assay: HTRF resonance energy transfer assay, K-Ras G12D / SOS1 interaction; assay type: biochemical; conditions: HTRF assay of Example 5; read-out: IC50 against K-Ras G12D
T4 construct: made in house; host or cells: E. coli BL21 (DE3)
Method in brief: as §1

SW620 cells = assay: Ras cellular assay, growth of cells with K-Ras G12V mutation (CellTiter-Glo); assay type: cell-based; conditions: Homo sapiens, SW-620; cell growth, Example 9, G12V mutation; read-out: IC50 against SW620 cells
Method in brief: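 SW620 (K-Ras G12V) cells, e.g. 800/well in RPMI-1640 with 10% heat-inactivated FBS on standard or ultra-low attachment plates, were dosed the day after plating with e.g. a 10-point 3-fold series. Viability by CellTiter-Glo luminescence about 6 days later; IC50 from four-parameter fit.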

T4 sequence (P01116 1-188 isoform P01116-2 G12D): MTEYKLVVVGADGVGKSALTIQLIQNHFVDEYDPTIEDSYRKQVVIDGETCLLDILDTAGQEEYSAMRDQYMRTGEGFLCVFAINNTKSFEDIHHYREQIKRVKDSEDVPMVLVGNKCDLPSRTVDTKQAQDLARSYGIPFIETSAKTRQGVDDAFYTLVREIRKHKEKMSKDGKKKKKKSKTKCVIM
T2 sequence (P01116 1-188 isoform P01116-2 G12S): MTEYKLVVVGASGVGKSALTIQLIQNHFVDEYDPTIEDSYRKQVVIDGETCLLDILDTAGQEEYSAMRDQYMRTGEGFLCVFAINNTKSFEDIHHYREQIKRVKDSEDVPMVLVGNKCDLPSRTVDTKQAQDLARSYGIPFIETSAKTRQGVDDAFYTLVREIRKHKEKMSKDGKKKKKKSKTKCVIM
T1 sequence (P01116 1-188 isoform P01116-2): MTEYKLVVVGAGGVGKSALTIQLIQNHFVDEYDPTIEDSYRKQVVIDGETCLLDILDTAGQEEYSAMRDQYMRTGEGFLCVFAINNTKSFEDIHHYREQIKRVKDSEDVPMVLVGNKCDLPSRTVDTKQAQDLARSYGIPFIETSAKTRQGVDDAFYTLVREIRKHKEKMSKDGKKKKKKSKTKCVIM
T3 sequence (P01116 1-188 isoform P01116-2 G12V): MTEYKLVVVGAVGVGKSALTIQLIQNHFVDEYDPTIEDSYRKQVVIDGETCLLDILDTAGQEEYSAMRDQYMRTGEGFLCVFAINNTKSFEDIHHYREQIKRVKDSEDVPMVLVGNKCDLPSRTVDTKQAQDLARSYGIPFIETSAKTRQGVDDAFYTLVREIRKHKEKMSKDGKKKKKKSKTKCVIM

Row | SMILES | pIC50 (GP2D cells) | pIC50 (A549 cells) | pIC50 (K-Ras WT) | pIC50 (K-Ras G12S) | pIC50 (K-Ras G12V) | pIC50 (K-Ras G12D) | pIC50 (SW620 cells)
1 | C[C@H](Oc1nc2c3c(c(Cl)c(-c4ccc(F)c5sc(N)c(C#N)c45)c(F)c3n1)OCCN2CC(F)F)[C@@H]1CCCN1C [Compound 901, 2-amino-4-(8-chloro-4-(2,2-difluoroethyl)-10-fluoro-2-((S)-1-((S)-1-methylpyrrolidin-2-yl)ethoxy)-5,6-dihydro-4H-[1,4]oxazepino[5,6,7-de]quinazolin-9-yl)-7-fluorobenzo[b]thiophene-3-carbonitrile] | > 6.30 | > 5.30 | > 7.00 | > 7.00 | > 7.00 | > 7.00 | > 5.30
2 | N#Cc1c(N)sc2c(F)ccc(-c3c(Cl)c4c5c(nc(OC[C@@]67CCCN6C[C@H](F)C7)nc5c3F)N(CC(F)F)[C@@H](CN)CO4)c12 [Compound 914, 2-amino-4-((5S)-5-(aminomethyl)-8-chloro-4-(2,2-difluoroethyl)-10-fluoro-2-(((2R,7aS)-2-fluorotetrahydro-1H-pyrrolizin-7a(5H)-yl)methoxy)-5,6-dihydro-4H-[1,4]oxazepino[5,6,7-de]quinazolin-9-yl)-7-fluorobenzo[b]thiophene-3-carbonitrile] | > 6.30 | > 5.30 | > 7.00 | > 7.00 | > 7.00 | > 7.00 | > 5.30
3 | N#Cc1c(N)sc2c(F)ccc(-c3c(Cl)c4c5c(nc(OC[C@@]67CCCN6C[C@H](F)C7)nc5c3F)N(C3CCN(C(=O)[C@@H]5N[C@H]5C5CC5)C3)CCO4)c12 (stereo partly drawn) [Compound 915, 2-amino-4-(8-chloro-4-(1-((2R,3S)-3-cyclopropylaziridine-2-carbonyl)pyrrolidin-3-yl)-10-fluoro-2-(((2R,7aS)-2-fluorotetrahydro-1H-pyrrolizin-7a(5H)-yl)methoxy)-5,6-dihydro-4H-[1,4]oxazepino[5,6,7-de]quinazolin-9-yl)-7-fluorobenzo[b]thiophene-3-carbonitrile] | > 6.30 | > 5.30 | > 7.00 | > 7.00 | > 7.00 | > 7.00 | > 5.30
4 | N#Cc1c(N)sc2c(F)ccc(-c3c(Cl)c4c5c(nc(OC[C@@]67CCCN6C[C@H](F)C7)nc5c3F)N(C3CCN(C(=O)C5C6COCC65)C3)CCO4)c12 (stereo partly drawn) [Compound 916, 4-(4-(1-(3-oxabicyclo[3.1.0]hexane-6-carbonyl)pyrrolidin-3-yl)-8-chloro-10-fluoro-2-(((2R,7aS)-2-fluorotetrahydro-1H-pyrrolizin-7a(5H)-yl)methoxy)-5,6-dihydro-4H-[1,4]oxazepino[5,6,7-de]quinazolin-9-yl)-2-amino-7-fluorobenzo[b]thiophene-3-carbonitrile] | > 6.30 | > 5.30 | > 7.00 | > 7.00 | > 7.00 | > 7.00 | > 5.30
5 | CN1CCC(N2CCOc3c(Cl)c(-c4ccc(F)c5sc(N)c(C#N)c45)c(F)c4nc(OC[C@@]56CCCN5C[C@H](F)C6)nc2c34)C1 (stereo partly drawn) [Compound 921, 2-amino-4-(8-chloro-10-fluoro-2-(((2R,7aS)-2-fluorotetrahydro-1H-pyrrolizin-7a(5H)-yl)methoxy)-4-(1-methylpyrrolidin-3-yl)-5,6-dihydro-4H-[1,4]oxazepino[5,6,7-de]quinazolin-9-yl)-7-fluorobenzo[b]thiophene-3-carbonitrile] | > 6.30 | > 5.30 | > 7.00 | > 7.00 | > 7.00 | > 7.00 | > 5.30
6 | CC(C1CC1C#N)N1CCOc2c(Cl)c(-c3ccc(F)c4sc(N)c(C#N)c34)c(F)c3nc(OC[C@@]45CCCN4C[C@H](F)C5)nc1c23 (stereo partly drawn) [Compound 923, 2-amino-4-(8-chloro-4-(1-(2-cyanocyclopropyl)ethyl)-10-fluoro-2-(((2R,7aS)-2-fluorotetrahydro-1H-pyrrolizin-7a(5H)-yl)methoxy)-5,6-dihydro-4H-[1,4]oxazepino[5,6,7-de]quinazolin-9-yl)-7-fluorobenzo[b]thiophene-3-carbonitrile] | > 6.30 | > 5.30 | > 7.00 | > 7.00 | > 7.00 | > 7.00 | > 5.30
7 | N#Cc1c(N)sc2c(F)ccc(-c3c(Cl)c4c5c(nc(OC[C@@]67CCCN6C[C@H](F)C7)nc5c3F)N(CCC(F)(F)F)CCO4)c12 [Compound 932, 2-amino-4-(8-chloro-10-fluoro-2-(((2R,7aS)-2-fluorotetrahydro-1H-pyrrolizin-7a(5H)-yl)methoxy)-4-(3,3,3-trifluoropropyl)-5,6-dihydro-4H-[1,4]oxazepino[5,6,7-de]quinazolin-9-yl)-7-fluorobenzo[b]thiophene-3-carbonitrile] | > 6.30 | > 5.30 | > 7.00 | > 7.00 | > 7.00 | > 7.00 | > 5.30
8 | CC(CO)N1CCOc2c(Cl)c(-c3ccc(F)c4sc(N)c(C#N)c34)c(F)c3nc(OC[C@@]45CCCN4C[C@H](F)C5)nc1c23 (stereo partly drawn) [Compound 937, 2-amino-4-(8-chloro-10-fluoro-2-(((2R,7aS)-2-fluorotetrahydro-1H-pyrrolizin-7a(5H)-yl)methoxy)-4-(1-hydroxypropan-2-yl)-5,6-dihydro-4H-[1,4]oxazepino[5,6,7-de]quinazolin-9-yl)-7-fluorobenzo[b]thiophene-3-carbonitrile] | > 6.30 | > 5.30 | > 7.00 | > 7.00 | > 7.00 | > 7.00 | > 5.30
9 | N#Cc1c(N)sc2c(F)ccc(-c3c(Cl)c4c5c(nc(OC[C@@]67CCCN6C[C@H](F)C7)nc5c3F)N([C@H]3CCN(C(=O)C(F)F)C3)CCO4)c12 [Compound 940, 2-amino-4-(8-chloro-4-((S)-1-(2,2-difluoroacetyl)pyrrolidin-3-yl)-10-fluoro-2-(((2R,7aS)-2-fluorotetrahydro-1H-pyrrolizin-7a(5H)-yl)methoxy)-5,6-dihydro-4H-[1,4]oxazepino[5,6,7-de]quinazolin-9-yl)-7-fluorobenzo[b]thiophene-3-carbonitrile] | > 6.30 | > 5.30 | > 7.00 | > 7.00 | > 7.00 | > 7.00 | > 5.30
10 | CC1Oc2c(Cl)c(-c3ccc(F)c4sc(N)c(C#N)c34)c(F)c3nc(OC[C@@]45CCCN4C[C@H](F)C5)nc(c23)N(CC(F)F)C1C (stereo partly drawn) [Compound 944, 2-amino-4-(8-chloro-4-(2,2-difluoroethyl)-10-fluoro-2-(((2R,7aS)-2-fluorotetrahydro-1H-pyrrolizin-7a(5H)-yl)methoxy)-5,6-dimethyl-5,6-dihydro-4H-[1,4]oxazepino[5,6,7-de]quinazolin-9-yl)-7-fluorobenzo[b]thiophene-3-carbonitrile] | > 6.30 | > 5.30 | > 7.00 | > 7.00 | > 7.00 | > 7.00 | > 5.30
11 | C[C@H]1CN(CCN(C)C)c2nc(OC[C@@]34CCCN3C[C@H](F)C4)nc3c(F)c(-c4ccc(F)c5sc(N)c(C#N)c45)c(Cl)c(c23)O1 [Compound 950, 2-amino-4-((6S)-8-chloro-4-(2-(dimethylamino)ethyl)-10-fluoro-2-(((2R,7aS)-2-fluorotetrahydro-1H-pyrrolizin-7a(5H)-yl)methoxy)-6-methyl-5,6-dihydro-4H-[1,4]oxazepino[5,6,7-de]quinazolin-9-yl)-7-fluorobenzo[b]thiophene-3-carbonitrile] | > 6.30 | > 5.30 | > 7.00 | > 7.00 | > 7.00 | > 7.00 | > 5.30
12 | N#Cc1c(N)sc2c(F)ccc(-c3c(Cl)c4c5c(nc(OC[C@@]67CCCN6C[C@H](F)C7)nc5c3F)N(CC3CC(F)(F)C3)CCO4)c12 [Compound 951, 2-amino-4-(8-chloro-4-((3,3-difluorocyclobutyl)methyl)-10-fluoro-2-(((2R,7aS)-2-fluorotetrahydro-1H-pyrrolizin-7a(5H)-yl)methoxy)-5,6-dihydro-4H-[1,4]oxazepino[5,6,7-de]quinazolin-9-yl)-7-fluorobenzo[b]thiophene-3-carbonitrile] | > 6.30 | > 5.30 | > 7.00 | > 7.00 | > 7.00 | > 7.00 | > 5.30
